# Values of other authors in patent publication US9328120B2, “6-cycloalkyl-pyrazolopyrimidinones for the treatment of CNS disorders” (Boehringer Ingelheim International GmbH, priority 2010, dated 2016).
# Legend:
# [1] = target: human PDE9A (Homo sapiens (Human), UniProt O76083); details: for inhibition on the isolated enzyme: concentrations of up to 100 micromolar (μM)
# [2] = target: Murine PDE9A (Mus musculus (Mouse), UniProt O70628); details: concentrations below 200 micromolar
# Chain of Murine PDE9A (O70628 whole entry): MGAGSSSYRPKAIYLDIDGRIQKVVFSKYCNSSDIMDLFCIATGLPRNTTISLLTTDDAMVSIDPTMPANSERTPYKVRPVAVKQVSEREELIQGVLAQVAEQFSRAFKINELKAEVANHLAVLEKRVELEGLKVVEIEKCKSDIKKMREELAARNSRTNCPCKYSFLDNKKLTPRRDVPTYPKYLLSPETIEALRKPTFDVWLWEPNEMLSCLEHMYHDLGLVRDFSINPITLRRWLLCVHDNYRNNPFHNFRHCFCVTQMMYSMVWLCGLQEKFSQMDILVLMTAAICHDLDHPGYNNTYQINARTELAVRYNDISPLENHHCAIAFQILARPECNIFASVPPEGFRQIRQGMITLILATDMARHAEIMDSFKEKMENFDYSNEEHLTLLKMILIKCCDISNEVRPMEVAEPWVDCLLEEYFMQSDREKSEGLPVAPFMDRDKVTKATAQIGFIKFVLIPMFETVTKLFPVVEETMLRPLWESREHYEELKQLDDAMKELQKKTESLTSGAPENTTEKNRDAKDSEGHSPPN
# Chain of human PDE9A (O76083 whole entry): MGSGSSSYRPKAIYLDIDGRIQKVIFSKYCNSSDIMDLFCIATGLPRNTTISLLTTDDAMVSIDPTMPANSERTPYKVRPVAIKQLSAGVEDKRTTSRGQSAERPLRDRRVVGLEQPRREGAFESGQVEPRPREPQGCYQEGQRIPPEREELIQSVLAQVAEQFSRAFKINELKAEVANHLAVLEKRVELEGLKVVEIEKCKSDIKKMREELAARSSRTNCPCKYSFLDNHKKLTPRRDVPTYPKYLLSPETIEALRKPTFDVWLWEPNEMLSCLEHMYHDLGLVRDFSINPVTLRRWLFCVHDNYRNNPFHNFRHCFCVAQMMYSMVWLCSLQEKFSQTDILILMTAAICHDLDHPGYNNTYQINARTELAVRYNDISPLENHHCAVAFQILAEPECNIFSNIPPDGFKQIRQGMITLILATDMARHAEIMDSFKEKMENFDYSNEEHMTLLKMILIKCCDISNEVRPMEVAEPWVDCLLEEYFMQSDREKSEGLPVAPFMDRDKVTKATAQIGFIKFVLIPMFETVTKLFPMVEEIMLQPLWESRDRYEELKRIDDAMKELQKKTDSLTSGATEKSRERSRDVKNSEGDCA
inhibition on the isolated enzyme [1],inhibition of murine PDE9A [2],IC50 ([1]; isolated human PDE9A enzyme),Compound
no inhibition,,,CC(=O)Nc1ccc(-c2c[nH]c(=O)cn2)cc1 [SKF94120]
no inhibition,,,OCCN(CCO)c1nc(N2CCCCC2)c2nc(N(CCO)CCO)nc(N3CCCCC3)c2n1 [dipyridamole]
,,35 micromolar (μM),CCCOc1ccccc1-c1nc2nn[nH]c2c(=O)[nH]1 [zaprinast]

# Continued, molecule first:
Compound,inhibition on the isolated enzyme [1],inhibition of murine PDE9A [2],IC50 ([1]; isolated human PDE9A enzyme)
CC(C)Cn1c(=O)n(C)c(=O)c2[nH]cnc21 [IBMX],no inhibition,not inhibited,
COc1ccc(C2CNC(=O)C2)cc1OC1CCCC1 (stereo not shown) [rolipram],no inhibition,,
CCOC(=O)C1=C[C@]2(CC)CCCN3CCc4c(n1c1ccccc41)[C@@H]32 [vinpocetine],no inhibition,,
